The record followed here is US7605163B2, “Benzoyl-piperazine derivatives” (Hoffmann-La Roche Inc., priority 2003, dated 2009).

Structures are written as SMILES.

This experiment concerns the target T1, mGlyT-1b (Mus musculus, UniProt P28571).
T1 construct: host or cells: Flp-in-CHO cells
T1 sequence (P28571 1-651 isoform P28571-2): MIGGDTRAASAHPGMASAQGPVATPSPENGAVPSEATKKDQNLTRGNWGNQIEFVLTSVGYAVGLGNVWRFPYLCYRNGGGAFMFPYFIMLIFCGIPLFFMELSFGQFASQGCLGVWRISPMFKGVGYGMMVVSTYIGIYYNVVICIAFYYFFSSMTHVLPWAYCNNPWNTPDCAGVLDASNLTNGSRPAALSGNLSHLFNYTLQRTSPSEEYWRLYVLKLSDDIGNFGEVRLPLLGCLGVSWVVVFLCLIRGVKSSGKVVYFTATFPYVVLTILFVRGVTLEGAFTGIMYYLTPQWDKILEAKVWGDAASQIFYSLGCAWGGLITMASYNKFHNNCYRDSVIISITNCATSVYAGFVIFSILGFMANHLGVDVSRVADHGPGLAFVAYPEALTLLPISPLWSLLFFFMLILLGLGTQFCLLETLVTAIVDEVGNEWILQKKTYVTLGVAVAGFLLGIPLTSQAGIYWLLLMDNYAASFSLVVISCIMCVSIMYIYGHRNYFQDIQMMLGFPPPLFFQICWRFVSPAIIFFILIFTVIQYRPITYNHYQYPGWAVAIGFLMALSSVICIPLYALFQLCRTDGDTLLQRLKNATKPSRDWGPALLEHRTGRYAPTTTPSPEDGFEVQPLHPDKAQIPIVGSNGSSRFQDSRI
As to the kind of experiment: Glycine Uptake Inhibition Assay (mGlyT-1b). In kind it is cell-based. As to conditions: [3H]-glycine uptake inhibition at GlyT-1, Flp-in-CHO cells transfected with mGlyT-1b cDNA. How it is done: DMEM complete medium: Nutrient mixture F-12 (Gibco Life-technologies), fetal bovine serum (FBS) 5%, (Gibco life technologies), Penicillin/Streptomycin 1% (Gibco life technologies), Hygromycin 0.6 mg/ml (Gibco life technologies), Glutamine 1 mM Gibco life technologies)
Uptake buffer (UB): 150 mM NaCl, 10 mM Hepes-Tris, pH 7.4, 1 mM CaCl2, 2.5 mM KCl, 2.5 mM MgSO4, 10 mM (+) D-glucose. Flp-in™-CHO (Invitrogen Cat n^o R758-07) cells stably transfected with mGlyT1b cDNA.
Glycine Uptake Inhibition Assay (mGlyT-1b)
On day 1 mammalian cells, (Flp-in™-CHO), transfected with mGlyT-1b cDNA, were plated at the density of 40,000 cells/well in complete F-12 medium, without hygromycin in 96-well culture plates. On day 2, the medium was aspirated, and the cells were washed twice with uptake buffer (UB). The cells were then incubated for 20 min at 22° C. with either (i) no potential competitor, (ii) 10 mM non-radioactive glycine, (iii) a concentration of a potential inhibitor. A range of concentrations of the potential inhibitor was used to generate data for calculating the concentration of inhibitor resulting in 50% of the effect (e.g. IC50, the concentration of the competitor inhibiting glycine uptake of 50%).
A solution was then immediately added containing [^3H]-glycine 60 nM (11-16 Ci/mmol) and 25 μM non-radioactive glycine. The plates were incubated with gentle shaking, and the reaction was stopped by aspiration of the mixture and washing (three times) with ice-cold UB. The cells were lysed with scintillation liquid, shaken 3 hours and the radioactivity in the cells counted using a scintillation counter.
`CC(C)COc1ccc(S(C)(=O)=O)cc1C(=O)N1CCN(c2cc(F)c(C#N)cc2F)CC1` [compound 132]: the IC50 (usually the concentration that gives 50% inhibition) worked out at 38 nM.

As to `CC(Oc1ccc(S(C)(=O)=O)cc1C(=O)N1CCN(c2ccc(Cl)cc2C#N)CC1)C(F)(F)F` (racemic) [compound 256], half-maximal inhibition (IC50) was put at 32 nM.

The compound `CS(=O)(=O)c1ccc(OCC(F)(F)C(F)(F)F)c(C(=O)N2CCN(c3c(F)cc(C#N)cc3F)CC2)c1` [compound 186] displayed an IC50 of 48 nM.

For the compound `CCCOc1ccc([N+](=O)[O-])cc1C(=O)N1CCN(c2ccc(C(F)(F)F)cc2)CC1` [Example 72, (5-Nitro-2-propoxy-phenyl)-[4-(4-trifluoromethyl-phenyl)-piperazin-1-yl]-methanone], half-maximal inhibition (IC50) was put at 26 nM.

Compound `CC(C)Oc1ccc(S(C)(=O)=O)cc1C(=O)N1CCN(c2ccc(C(F)F)cc2F)CC1` [compound 400] yielded a 50% inhibitory concentration (IC50) of 23 nM.

On to `CCC(C)Oc1ccc(S(C)(=O)=O)cc1C(=O)N1CCN(c2ccc(C(F)(F)F)c(F)c2)CC1` (racemic) [compound 325], for which the IC50 stood at 33 nM.

For `CCS(=O)(=O)c1ccc(OC(C)C)c(C(=O)N2CCN(c3ccc(C(F)(F)F)cc3F)CC2)c1` [compound 393], the midpoint of inhibition, the IC50, lay at 32 nM.

With `CNS(=O)(=O)c1ccc(OCC(F)(F)F)c(C(=O)N2CCN(c3ccc(C(F)(F)F)cc3)CC2)c1` [compound 537], the IC50 was 30 nM.

`CS(=O)(=O)c1ccc(OCC2CC2)c(C(=O)N2CCN(c3cc(F)c(C#N)c(F)c3)CC2)c1` [compound 170] had a concentration for half-maximal inhibition (IC50) of 31 nM.

`CC(C)Oc1ccc(S(C)(=O)=O)cc1C(=O)N1CCN(c2ncc(C(F)(F)F)cc2Cl)CC1` [compound 417] displayed an IC50 of 46 nM.

Compound `CS(=O)(=O)c1ccc(OCC(F)(F)C(F)F)c(C(=O)N2CCN(c3ccc(C(F)(F)F)cc3F)CC2)c1` [compound 212] displayed an IC50 of 29 nM.

Regarding `CC(Oc1ccc(S(C)(=O)=O)cc1C(=O)N1CCN(c2ccc(C(F)(F)F)cc2)CC1)C(F)(F)F` (centres unmarked) [compound 301], 30 nM corresponded to half-maximal inhibition (IC50).

As to `CC(C)COc1ccc(S(C)(=O)=O)cc1C(=O)N1CCN(c2ccc(S(=O)(=O)C3CC3)cc2F)CC1` [compound 578], the IC50 was 41 nM.

The compound `CC(C)COc1ccc([N+](=O)[O-])cc1C(=O)N1CCN(c2ccc(C(F)(F)F)cc2)CC1` [Example 70, (2-Isobutoxy-5-nitro-phenyl)-[4-(4-trifluoromethyl-phenyl)-piperazin-1-yl]-methanone] registered an IC50 of 8 nM.

`O=C(c1cc([N+](=O)[O-])ccc1OC1CCCC1)N1CCN(c2ccc(C(F)(F)F)cc2)CC1` [Example 71, (2-Cyclopentyloxy-5-nitro-phenyl)-[4-(4-trifluoromethyl-phenyl)-piperazin-1-yl]-methanone] returned an IC50 of 8 nM.

With `CC(Oc1ccc(S(C)(=O)=O)cc1C(=O)N1CCN(c2cccc(C(F)(F)F)n2)CC1)C(F)(F)F` (racemic) [compound 459], the half-inhibitory concentration (IC50) turned out to be 40 nM.

In turn, `CS(=O)(=O)c1ccc(N2CCN(C(=O)c3cc(S(C)(=O)=O)ccc3OC3CCCCC3)CC2)c(F)c1` [compound 288] gave a concentration for half-maximal inhibition (IC50) of 25 nM.

With `CNS(=O)(=O)c1ccc(OC(C)C(F)(F)F)c(C(=O)N2CCN(c3cc(F)c(C#N)cc3F)CC2)c1` (racemic) [compound 557], the 50% inhibitory concentration (IC50) came to 42 nM.

The compound `CS(=O)(=O)c1ccc(OCC2CCC2)c(C(=O)N2CCN(c3ccc(C#N)cc3)CC2)c1` [compound 136] came in with an IC50 of 27 nM.

Compound `CS(=O)(=O)c1ccc(OC2CCC2)c(C(=O)N2CCN(c3ccc(C#N)cc3F)CC2)c1` [compound 313] registered an IC50 of 18 nM.

`CS(=O)(=O)c1ccc(OCC2CC2)c(C(=O)N2CCN(c3c(F)cc(C#N)cc3F)CC2)c1` [compound 165] came in with a concentration for half-maximal inhibition (IC50) of 470 nM.

As for `CC(C)Oc1ccc(S(C)(=O)=O)cc1C(=O)N1CCN(c2ccc(C(F)(F)F)cc2F)CC1` [Example 5, [4-(2-fluoro-4-trifluoromethyl-phenyl)-piperazin-1-yl]-(2-isopropoxy-5-methanesulfonyl-phenyl)-methanone], 12 nM corresponded to half-maximal inhibition (IC50).

As for `CS(=O)(=O)c1ccc(OCC(F)(F)C(F)F)c(C(=O)N2CCN(c3ccc(C#N)c(F)c3F)CC2)c1` [compound 213], the 50% inhibitory concentration (IC50) is 21 nM.

In turn, `CS(=O)(=O)c1ccc(OC2CCCCC2)c(C(=O)N2CCN(c3ccc(C#N)cc3)CC2)c1` [compound 282] showed a half-inhibitory concentration (IC50) of 27 nM.

`CS(=O)(=O)c1ccc(OCC2CCC2)c(C(=O)N2CCN(c3ccc(C(F)(F)F)cc3C#N)CC2)c1` [compound 144] had an IC50 of 45 nM.

`CS(=O)(=O)c1ccc(OCCC(F)(F)F)c(C(=O)N2CCN(c3ccc(C#N)cc3F)CC2)c1` [compound 112] showed an IC50 of 24 nM.

In the case of `CS(=O)(=O)c1ccc(OC2CCCC2)c(C(=O)N2CCN(c3cc(F)c(C#N)c(F)c3)CC2)c1` [compound 172], half-maximal inhibition (IC50) was put at 19 nM.

In the case of `CC(=O)c1ccc(N2CCN(C(=O)c3cc(S(C)(=O)=O)ccc3OCC(C)C)CC2)cc1F` [compound 372], it took 6 nM to reach half-maximal inhibition (IC50).

`CNS(=O)(=O)c1ccc(OCC2CCC2)c(C(=O)N2CCN(c3ccc(C#N)c(F)c3)CC2)c1` [compound 481]: the concentration for half-maximal inhibition (IC50) is 30 nM.

`CS(=O)(=O)c1ccc(OCC2CCC2)c(C(=O)N2CCN(c3ccc(C#N)c(F)c3)CC2)c1` [compound 137] showed a half-inhibitory concentration (IC50) of 27 nM.

In turn, `CC(Oc1ccc(S(C)(=O)=O)cc1C(=O)N1CCN(c2ccc(C(F)(F)F)cc2F)CC1)C(F)(F)F` (racemic) [compound 302] displayed an IC50 of 13 nM.

As for `CC(C)(C)Oc1ccc(S(C)(=O)=O)cc1C(=O)N1CCN(c2c(F)cc(S(C)(=O)=O)cc2F)CC1` [compound 250], the IC50 came out at 61 nM.

`CC(Oc1ccc(S(C)(=O)=O)cc1C(=O)N1CCN(c2c(F)cc(C#N)cc2F)CC1)C(F)(F)F` (racemic) [compound 260] came in with an IC50 of 43 nM.

In turn, `CC(C)Oc1ccc(S(C)(=O)=O)cc1C(=O)N1CCN(c2ccc(C=O)cc2F)CC1` [compound 461] came in with an IC50 of 46 nM.

With `CNS(=O)(=O)c1ccc(OCC(C)(C)C)c(C(=O)N2CCN(c3ccc(C#N)cc3F)CC2)c1` [compound 505], the concentration for half-maximal inhibition (IC50) came out at 24 nM.

For the compound `CNS(=O)(=O)c1ccc(OC2CCC2)c(C(=O)N2CCN(c3ccc(C(F)(F)F)cc3)CC2)c1` [compound 528], the IC50 came out at 15 nM.

On to `CC(=O)c1ccc(N2CCN(C(=O)c3cc(S(C)(=O)=O)ccc3OCC3CC3)CC2)c(F)c1` [Example 15, 1-{4-[4-(2-cyclopropylmethoxy-5-methanesulfonyl-benzoyl)-piperazin-1-yl]-3-fluoro-phenyl}-ethanone], for which the IC50 was found to be 15 nM.

With `CNS(=O)(=O)c1ccc(OCC(C)C)c(C(=O)N2CCN(c3ccc(C#N)cc3)CC2)c1` [compound 488], the IC50 was 39 nM.

For the compound `CC(C)Oc1ccc(S(C)(=O)=O)cc1C(=O)N1CCN(c2ccc(Cl)cc2C#N)CC1` [compound 202], the IC50 amounted to 24 nM.

`CCC(C)Oc1ccc(S(C)(=O)=O)cc1C(=O)N1CCN(c2ccc(C(C)=O)cc2F)CC1` (racemic) [compound 319] displayed an IC50 of 31 nM.

As to `CC(C)(C)Oc1ccc(S(C)(=O)=O)cc1C(=O)N1CCN(c2ccc(C(F)(F)F)cc2F)CC1` [compound 247], 30 nM corresponded to half-maximal inhibition (IC50).

In turn, `COCCS(=O)(=O)c1ccc(N2CCN(C(=O)c3cc(S(C)(=O)=O)ccc3OC(C)C)CC2)c(F)c1` [compound 561] gave a half-inhibitory concentration (IC50) of 38 nM.

`CNS(=O)(=O)c1ccc(OC(C)C(F)(F)F)c(C(=O)N2CCN(c3ccc(C(F)(F)F)cc3)CC2)c1` (racemic) [compound 554] had an IC50 of 19 nM.

In the case of `CC(C)(C)Oc1ccc(S(C)(=O)=O)cc1C(=O)N1CCN(c2ccc(C#N)c(F)c2F)CC1` [compound 196], inhibition was half-maximal at 41 nM (IC50).

Compound `CC(=O)c1ccc(N2CCN(C(=O)c3cc(S(C)(=O)=O)ccc3OC(C)C)CC2)cc1F` [compound 367] showed a half-inhibitory concentration (IC50) of 36 nM.

As for `CC(C)(Oc1ccc(S(C)(=O)=O)cc1C(=O)N1CCN(c2ncc(C(F)(F)F)cc2F)CC1)C(F)(F)F` [compound 637], the IC50 was determined as 47 nM.

`CS(=O)(=O)c1ccc(OCC(F)(F)F)c(C(=O)N2CCN(c3ccc(Cl)c(Cl)c3)CC2)c1` [compound 251]: it took 32 nM to reach half-maximal inhibition (IC50).
